Data as given in patent publication US5834484A (Board of Supervisors of Louisiana State University and …, priority 1998, dated 1998).
Where two headings read alike, the source gives them in different places.

Legend:
DAT = settings: in words; cited from earlier work
[1] = biological target: T1, dopamine transporter (DAT), cocaine binding site (Rattus norvegicus, UniProt P23977); experiment: Displacement of [^3 H]WIN 35,428 binding (rat striatal / caudate-putamen membranes); settings: for binding affinity compared with cocaine and WIN 35,065-2: high affinity Ki values/components of cocaine and WIN 35,065-2; for Ki: mean ± SEM, three experiments in triplicate, unlabeled ligand, rat caudate-putamen
T1 construct: Rat striatal membranes are prepared from frozen tissue; from tissue; host or cells: rat caudate-putamen (striatal) membranes from frozen tissue
T1 sequence (P23977 whole entry): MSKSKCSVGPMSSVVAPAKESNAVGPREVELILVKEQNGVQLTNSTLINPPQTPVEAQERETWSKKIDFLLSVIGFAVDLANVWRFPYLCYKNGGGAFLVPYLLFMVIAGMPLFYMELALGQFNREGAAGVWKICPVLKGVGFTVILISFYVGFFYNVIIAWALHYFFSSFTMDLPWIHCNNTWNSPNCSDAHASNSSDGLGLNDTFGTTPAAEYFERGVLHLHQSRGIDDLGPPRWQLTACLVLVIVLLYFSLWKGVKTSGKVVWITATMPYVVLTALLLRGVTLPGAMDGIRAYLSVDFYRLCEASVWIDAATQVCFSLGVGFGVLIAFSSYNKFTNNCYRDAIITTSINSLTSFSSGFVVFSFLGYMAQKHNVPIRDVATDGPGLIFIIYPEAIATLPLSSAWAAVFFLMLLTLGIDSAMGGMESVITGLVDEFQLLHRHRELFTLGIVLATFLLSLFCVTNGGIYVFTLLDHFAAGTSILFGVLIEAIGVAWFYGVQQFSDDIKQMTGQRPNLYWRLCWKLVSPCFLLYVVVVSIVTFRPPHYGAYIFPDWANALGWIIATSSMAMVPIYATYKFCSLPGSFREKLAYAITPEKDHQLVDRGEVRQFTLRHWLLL

[2] = biological target: T1, dopamine transporter (DAT), cocaine binding site; settings: two-site model, taken from Izenwasser et al. 1994, substantially identical conditions, cited from earlier work

## COC(=O)[C@@H]1[C@@H](OC(=O)c2ccccc2)C[C@@H]2[C@@H](OC)C[C@H]1N2C (relative stereo) [Compound 3, 6β-methoxypseudococaine]
DAT
  binding affinity to DAT (literature): relatively low

## COC(=O)[C@H]1[C@H]2[C@H](OC)C[C@@H](C[C@@H]1OC(=O)c1ccccc1)N2C (relative stereo) [Compound 4, 7β-methoxypseudococaine]
DAT
  binding affinity to DAT (literature): relatively low

## COC(=O)C[C@H]1[C@@H](Cc2ccccc2)C[C@@H]2CC[C@H]1N2C (relative stereo) [Compound 16a]
[1]; in words
  binding affinity compared with cocaine and WIN 35,065-2: not statistically different from the binding affinities of cocaine and WIN 35,065-2
[1]
  Ki: 91 ± 10 nM

## COC(=O)C[C@@H]1[C@@H](Cc2ccccc2)C[C@@H]2CC[C@H]1N2C (relative stereo) [Compound 17a]
[1]; in words
  potency relative to the binding affinities of cocaine, WIN 35,065-2 and 16a (unsubstituted 2α-isomer): significantly less potent
[1]
  Ki: 108 ± 14 nM
[1]; vs prior art cocaine analog 3
  potency (binding affinity) relative to Compound 3, in words: nearly three orders of magnitude more potent

## COC(=O)C[C@@H]1[C@@H](Cc2ccccc2)C[C@@H]2[C@H](C)C[C@H]1N2C (relative stereo) [Compound 17b]
[1]
  Ki: 531 ± 12 nM

## CC[C@@H]1C[C@@H]2[C@H](CC(=O)OC)[C@@H](Cc3ccccc3)C[C@H]1N2C (relative stereo) [Compound 17c]
[1]; vs prior art cocaine analog 3
  potency (binding affinity) relative to Compound 3, fold: about 100 times

## COC(=O)C[C@H]1[C@@H](Cc2ccccc2)C[C@@H]2[C@@H](C)C[C@H]1N2C (relative stereo) [Compound 18b]
[1]; 18b vs 16b
  potency relative to corresponding 6α-methyl analog 16b: about fourfold more potent
[1]; in words
  binding affinity relative to unsubstituted analog 16a: only a slightly lower binding affinity than that of the unsubstituted analog 16a
  binding affinity compared with cocaine and WIN 35,065-2: within a factor of two of the high affinity binding components of cocaine and WIN 35,065-2

## COC(=O)C[C@@H]1[C@@H](Cc2ccccc2)C[C@@H]2[C@@H](C)C[C@H]1N2C (relative stereo) [Compound 19b]
[1]; 19b vs 17b
  potency relative to corresponding 6α-isomer 17b: about twice as potent
[1]; in words
  binding affinity relative to unsubstituted derivative 17a: comparable to that of the unsubstituted derivative 17a
[1]; vs prior art cocaine analog 3
  potency (binding affinity) relative to Compound 3, in words: nearly three orders of magnitude more potent

## CCC[C@H]1C[C@@H]2[C@H](CC(=O)OC)[C@@H](Cc3ccccc3)C[C@H]1N2C (relative stereo) [Compound 19d]
[1]; vs prior art cocaine analog 3
  potency (binding affinity) relative to Compound 3, in words: nearly three orders of magnitude more potent

## COC(=O)[C@H]1[C@@H](c2ccccc2)C[C@@H]2CC[C@H]1N2C [WIN 35,065-2]
[2]; read-out: Ki, high affinity, inhibition of [^3 H]WIN 35,428 binding, high affinity
  Ki: 33 ± 17 nM
[2]; read-out: Ki, low affinity, inhibition of [^3 H]WIN 35,428 binding, low affinity
  Ki: 314 ± 222 nM
